Reference: patent US20260274794A1, “COMPOUNDS, COMPOSITIONS, AND METHOD OF INHIBITING TAU PROTEIN AND ALPHASYNUCLEIN AGGREGATION” (Purdue Research Foundation, priority 2023, published 2026)
“Also recorded” adds a separate entry of the source.

Tests used:
α-synuclein (α-syn) = biological target: T1, α-synuclein (α-syn) (Homo sapiens, UniProt P37840); experiment: Thioflavin T (ThT) fluorescence assay of α-syn fibril formation; type: biochemical; conditions: compound 100 μM; ThT fluorescence intensity at plateau phase, control = 100%
T1 construct: purchased rPeptide, LLC (Watkinsville, GA)
Method: (§1) ThT fluorescence is routinely established assay to follow the kinetics of α-syn fibril formation with different drug candidate treatments. Compounds were first tested at a final of concentration of 100 μM and α-syn and 2N4R tau were prepared at 2 μM and 6 μM, respectively. Compounds with highest anti-fibrillary activity were tested at 3.125, 6.25, 12.5, 25, 50, and 100 μM to obtain dose-response curves.
For the α-syn ThT assay, ThT was used at a final concentration of 20 μM. α-Syn was dissolved in 20 mM Tris-HCl (pH 7.4) supplemented with 100 mM NaCl to a stock solution of 280 μM (1 mg/250 μL) prior to resuspension in ThT buffer to obtain a final concentration of 2 μM. Compounds and ThT were first added to the wells. The kinetics of fibril formation begin when the α-syn was solubilized in the ThT buffer (10 mM PBS buffer (pH 7.4), supplemented with 0.5 mM SDS and 300 mM NaCl) and added to a non-treated black 96 well microplate with a transparent flat bottom. Each well was filled with a maximum volume of 150 μL buffer with one 3 mm borosilicate bead. The background fluorescence signal consisted of ThT in buffer and 0.25% DMSO without α-syn. The excitation and emission wavelengths were set at 440 and 485 nm, respectively, with a Synergy HT multi-mode microplate reader (BioTek, Winooski, VT). Measurements were taken at 37° C. every 20 minutes over 50 hours of shaking prior to reading the plate. Samples were measured in three replicates and the experiments were repeated three times using different α-syn stock solutions. For each time point, the background fluorescence signal was subtracted. Arbitrary units of fluorescence were calculated from the mean values normalized against the maximum value in each completed assay. Arbitrarily, the maximum value (100%) for the fluorescence intensity was established for α-syn.
Compounds were tested at 100 μM with α-syn at 6 μM, resulting in a molar ratio of approximately 1:16 (protein:compound). The plateau phase of sigmoidal kinetics is of particular interest because it is the phase in which mature fibrils form and where aggregation and disaggregation are at equilibrium with each other; therefore, the fluorescence intensity between multiple compounds at the plateau phase can be compared to identify the compounds with the most promising anti-aggregation activity (Table 1, column α-syn ThT %). […] Compound 17 was the best representative of the 5-aminoindole series and moved to the tier-2 assays, even though the resulting ThT percentage of fluorescence intensity was 10% higher than the cut off. These compounds were then tested on tau 2N4R ThT fluorescence assays.

α-syn = α-syn (Homo sapiens, UniProt P37840); experiment: Transmission electron microscopy of α-syn fibrils; type: biochemical; conditions: 60 μM α-syn: 600 μM compound, 24-hours exposure
Method: (§2) For the examination of ultrastructural changes, 60 μM of proteins (α-syn and tau isoform 2N4R) in contact with DMSO or 600 μM of compound were incubated in a 10 mM PBS buffer (pH 7.4) for 24 h at 37° C. (molar ratio 1:10). Samples at the end of tau ThT kinetics of fibril formation were also analyzed at similar molar ratio with 6 time less concentrated samples. For the preparation of grids prior examination, a volume of 10 μL if each sample was applied on a 400-mesh Formvar-carbon-coated copper grid (Electron Microscopy Sciences, Hatfield, PA). The grids were incubated for 1 minute with the sample and after washed three times with distilled water, After being air-dried, a fresh solution of 1% uranyl acetate was applied for 1 minute. Solution was absorbed with filter paper and grids were air-dried. Evaluation of grids were performed using a transmission microscope (JEOL 1400 Flash, Japan). Transmission electron micrographs were captured using an accelerating voltage of 100 kV and magnification of 40 k.
(§3) To confirm that the reduction of ThT fluorescence observed with compounds 2, 8, and 17 was due to the reduction in protein fibrillization rather than interference with ThT [31], transmission electron microscopy (TEM) of α-syn and tau isoform 2N4R with these same compounds was utilized to visualize direct changes in α-syn and tau isoform 2N4R fibril morphology after 24-hours exposure (FIG. 5). […] Results were reproduced using the tau isoform 2N4R and different compounds at the above-mentioned higher concentrations using the identical molar ratio and incubation time. […] Compound 2 was the only candidate resulting in a grid quasi exempt of fibrils.

[1] = Kinetics of solubility in ThT buffer; type: physicochemical; conditions: ThT buffer: 1×PBS pH 7.4, 300 mM NaCl, 0.5 mM SDS
Method: Kinetics of solubility analysis was performed at the MSU Medicinal Chemistry Core facility.

tau isoform 2N4R [2] = biological target: T2, tau isoform 2N4R (Homo sapiens, UniProt P10636); experiment: Transmission electron microscopy of tau isoform 2N4R fibrils; type: biochemical; conditions: compound 100 μM, 50-hours exposure; reproduced at higher concentrations, molar ratio 1:10
T2 construct: made in house; host or cells: E. coli BL21 (DE3), vector pRK172
Method: as §2, §3

tau isoform 2N4R [3] = biological target: T2, tau isoform 2N4R; experiment: ThT fluorescence assay of tau isoform 2N4R fibril formation; type: biochemical; conditions: for effect on tau isoform 2N4R fibril formation (ThT): compound 100 μM, tau 2N4R 6 μM; for tau isoform 2N4R fibrillization, ThT dose-response: compound 3.125-100 μM, tau 6 μM, plateau phase
Method: as §1
Concerning the non-phosphorylated tau (isoform 2N4R) kinetics of fibril formation, ThT was performed with the tau protein solution was diluted to a final concentration of 6 μM in PBS (pH 7.4) supplemented with 1.5 μM heparin, 20 μM ThT, 2.5 mM DTT, and 100 μM compound. Aliquots of the diluted protein solution (100 μL each) were pipetted into the wells of a 96-well plate, and a Teflon ball was added to each well. The plate was incubated at 37° C. with constant shaking at 1,000 rpm in a Tecan Stark plate reader. ThT fluorescence was measured every 15 min with excitation and emission wavelengths of 440 nm and 480 nm, and the data were plotted using GraphPad Prism.
Various structural analogs were first tested at a final concentration of 100 μM in the presence of tau 2N4R at 6 μM. Compounds 2, 4-8, and 17 were pre-selected with α-syn ThT assay prior to evaluation on the tau isoform 2N4R.

T2 sequence (P10636 1-441 isoform P10636-8): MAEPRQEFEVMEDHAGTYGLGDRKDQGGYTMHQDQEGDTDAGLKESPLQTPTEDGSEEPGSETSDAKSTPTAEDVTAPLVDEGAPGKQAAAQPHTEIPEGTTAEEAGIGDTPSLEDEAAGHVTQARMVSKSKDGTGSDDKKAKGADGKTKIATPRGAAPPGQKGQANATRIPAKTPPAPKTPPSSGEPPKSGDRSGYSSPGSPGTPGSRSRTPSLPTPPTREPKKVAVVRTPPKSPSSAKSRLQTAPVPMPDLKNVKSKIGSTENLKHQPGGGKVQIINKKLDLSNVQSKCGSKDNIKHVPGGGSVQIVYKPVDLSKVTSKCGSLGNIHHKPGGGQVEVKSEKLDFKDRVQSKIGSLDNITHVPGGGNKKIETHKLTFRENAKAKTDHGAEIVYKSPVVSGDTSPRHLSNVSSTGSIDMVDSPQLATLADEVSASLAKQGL

| SMILES | remaining activity at 100 µM (α-synuclein (α-syn)) [%] | α-syn fibril morphology (TEM) (α-syn) | Measured Solubility [1] [µM] | tau isoform 2N4R fibril morphology (TEM) (tau isoform 2N4R [2]) | effect on tau isoform 2N4R fibril formation (ThT) (tau isoform 2N4R [3]) | tau isoform 2N4R fibrillization, ThT dose-response (tau isoform 2N4R [3]) |
| --- | --- | --- | --- | --- | --- | --- |
| O=C(Nc1cccc2[nH]ccc12)c1ccccc1 [Compound 2, N-(1H-indol-4-yl)benzamide] | ≤ 30 | clear effect in reducing α-syn fibrillization | >300 | levels of tau fibril at 20 μM were reduced; also recorded: Fewer and not well-defined fibrils | weaker anti-fibrilization effect | reduction in protein fibrillization when subjected to higher concentrations |
| O=C(Nc1cccc2[nH]ccc12)c1ccc(F)cc1 [Compound 8, 4-fluoro-N-(1H-indol-4-yl)benzamide] | ≤ 30 | clear effect in reducing α-syn fibrillization; also recorded: most drastic effect, with immature fibrils surrounded by irregular globular structures | >300 | levels of tau fibril at 20 μM were reduced | good inhibitory effect | reduction in protein fibrillization when subjected to higher concentrations |
| O=C(Nc1ccc2[nH]ccc2c1)c1ccccc1Cl [Compound 13, 2-chloro-N-(1H-indol-5-yl)benzamide] | 73.7 ± 5.6 | mature fibrils after 24 hours | >300 | long fibrils admixed with amorphous materials and/or debris | increased the fluorescence intensity |  |
